The supplement of paper PMC5412046
Structures can show the parent of a compound that is named as a salt.

Experiments:
SB.msgc-1 [1] = test: viability at highest tested concentration (MAXR) relative to DMSO; higher = less cytotoxic; conditions: SB.msgc-1 (sporadic gastric cancer)
Procedure, shortened: (§1)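 Compound in DMSO was pinned (23 nL) at 11 threefold-diluted concentrations into wells containing 500 patient-derived gastric cancer cells, hereditary or sporadic, in 5 μL medium per 1536 well. Cells were incubated for 48 h, then exposed to CellTiter-Glo for 30 min at room temperature. Luminescence was measured on a ViewLux. The values are viability normalised to DMSO, either at the highest concentration or as trapezoidal area under the curve.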

SB.mhdgc-1 [2] = test: as above; conditions: SB.mhdgc-1 (hereditary c.1380delA CDH1 gastric cancer)
Procedure, shortened: as §1

SB.msgc-1 [3] = test: area under the dose-response curve of % viability (trapezoidal, 11 doses) (% viability x log10 concentration); higher = less cytotoxic; conditions: SB.msgc-1 (sporadic gastric cancer)
Procedure, shortened: as §1

SB.mhdgc-1 [4] = test: as above; conditions: SB.mhdgc-1 (hereditary c.1380delA CDH1 gastric cancer)
Procedure, shortened: as §1

| Structure (SMILES) | viability (SB.msgc-1 [1]) | viability (SB.mhdgc-1 [2]) | area under the dose-response curve (SB.msgc-1 [3]) | area under the dose-response curve (SB.mhdgc-1 [4]) |
| --- | --- | --- | --- | --- |
| CC[C@@H]1/C=C(\C)C[C@H](C)C[C@H](OC)[C@H]2O[C@@](O)(C(=O)C(=O)N3CCCC[C@H]3C(=O)O[C@H](/C(C)=C/[C@@H]3CC[C@H](Cl)[C@H](OC)C3)[C@H](C)[C@@H](O)CC1=O)[C@H](C)C[C@@H]2OC [Pimecrolimus] (top concentration 46.0829 µM) | 52.4% | 38.6% | 507 | 474 |
| COc1ccc(-c2nc3cc(C4=NNC(=O)CC4C)ccc3[nH]2)cc1 (stereo unspecified) [Pimobendan] (top concentration 46.0829 µM) | 106% | 131% | 530 | 526 |
| CCc1ccc(CCOc2ccc(CC3SC(=O)NC3=O)cc2)nc1 (stereo unspecified) [Pioglitazone HCl] (top concentration 46.0829 µM) | 91.4% | 112% | 506 | 579 |
| Clc1ccc2c(N3CCN(CCCN4CCN(c5ccnc6cc(Cl)ccc56)CC4)CC3)ccnc2c1 [Piperaquine] (top concentration 23.0415 µM) | 97.8% | 78.2% | 534 | 507 |
| O=C(/C=C/C=C/c1ccc2c(c1)OCO2)N1CCCCC1 [Piperine] (top concentration 46.0829 µM) | 93% | 131% | 537 | 535 |
| COc1cccc2c1C(=O)c1c(O)c3c(c(O)c1C2=O)C[C@@](O)(C(=O)CO)C[C@@H]3O[C@H]1C[C@H](N)[C@H](O[C@H]2CCCCO2)[C@H](C)O1 [Pirarubicin] (top concentration 46.0829 µM) | 31.3% | 22.4% | 437 | 367 |
| CN1\C(=C(\O)C2=C(C=CC=C2)[S+]1([O-])=O)C(=O)NC3=CC=CC=N3 [Piroxicam] (top concentration 46.0829 µM) | 88.3% | 63.8% | 517 | 442 |
| O=C([O-])C[C@H](O)C[C@H](O)/C=C/c1c(C2CC2)nc2ccccc2c1-c1ccc(F)cc1 [Pitavastatin calcium] (top concentration 46.0829 µM) | 82% | 85.8% | 528 | 489 |
| CN1CCC(=C2c3ccccc3CCc3sccc32)CC1 [Pizotifen] (top concentration 46.0829 µM) | 100% | 66.1% | 560 | 588 |
| c1cc(CN2CCCNCCNCCCNCC2)ccc1CN1CCCNCCNCCCNCC1 [Plerixafor hydrochloride] (top concentration 46.0829 µM) | 81.5% | 109% | 450 | 579 |
| CC(C)(C)c1[nH]cnc1/C=c1\[nH]c(=O)/c(=C/c2ccccc2)[nH]c1=O [Plinabulin] (top concentration 92.1659 µM) | 2.47% | 3.33% | 227 | 327 |
| Cc1cc(Nc2ncc3c(n2)N(C)C(=O)N(c2cc(NC(=O)c4cccc(C(F)(F)F)c4)ccc2C)C3)n(C)n1 [Pluripotin] (top concentration 46.0829 µM) | 45.8% | 40.4% | 438 | 429 |
| OC[C@H]1O[C@@H](Oc2cc(O)cc(/C=C/c3ccc(O)cc3)c2)[C@H](O)[C@@H](O)[C@@H]1O [Polydatin] (top concentration 46.0829 µM) | 55.8% | 76.4% | 537 | 594 |
| CCC(C)CCCCC(=O)N[C@@H](CCN)C(=O)NC(C(=O)N[C@H](CCN)C(=O)N[C@@H]1CCNC(=O)C([C@@H](C)O)NC(=O)[C@@H](CCN)NC(=O)[C@@H](CCN)NC(=O)[C@@H](CC(C)C)NC(=O)[C@H](Cc2ccccc2)NC(=O)[C@H](CCN)NC1=O)[C@@H](C)O (stereo partly specified) [Polymyxin B sulphate] (top concentration 46.0829 µM) | 102% | 109% | 527 | 563 |
| Nc1cccc2c1C(=O)N(C1CCC(=O)NC1=O)C2=O (stereo unspecified) [Pomalidomide] (top concentration 46.0829 µM) | 115% | 124% | 538 | 526 |
| CC[C@@H]([C@H](C)O)n1ncn(-c2ccc(N3CCN(c4ccc(OCC5CO[C@@](Cn6cncn6)(c6ccc(F)cc6F)C5)cc4)CC3)cc2)c1=O (stereo partly specified) [Posaconazole] (top concentration 46.0829 µM) | 25.3% | 40.4% | 440 | 448 |
| CCCCc1nc2cc(/C=C/C(=O)NO)ccc2n1CCN(CC)CC [Pracinostat] (top concentration 46.0829 µM) | 4.7% | 37% | 251 | 442 |
| C#CCC(Cc1cnc2nc(N)nc(N)c2n1)c1ccc(C(=O)N[C@@H](CCC(=O)O)C(=O)O)cc1 (stereo partly specified) [Pralatrexate] (top concentration 46.0829 µM) | 36.8% | 55.7% | 332 | 394 |
| CCCN[C@H]1CCc2nc(N)sc2C1 [Pramipexole hydrochloride] (top concentration 46.0829 µM) | 113% | 85.9% | 506 | 495 |
| CC(C)N(CCNC(=O)CN1CCCC1=O)C(C)C [Pramiracetam hydrochloride] (top concentration 46.0829 µM) | 124% | 126% | 559 | 584 |
| O=C(Nc1cccc2c(=O)cc(-c3nnn[nH]3)oc12)c1ccc(OCCCCc2ccccc2)cc1 [Pranlukast hydrate] (top concentration 46.0829 µM) | 30.2% | 9.85% | 316 | 499 |
| CC(=O)Oc1cc2c(s1)CCN(C(C(=O)C1CC1)c1ccccc1F)C2.Cl (stereo unspecified) [Prasugrel] (top concentration 46.0829 µM) | 59% | 63.9% | 452 | 417 |

| Structure (SMILES) | viability (SB.msgc-1 [1]) | viability (SB.mhdgc-1 [2]) | area under the dose-response curve (SB.msgc-1 [3]) | area under the dose-response curve (SB.mhdgc-1 [4]) |
| --- | --- | --- | --- | --- |
| COc1ccc(C(=O)c2c(C)n(CCN3CCOCC3)c3ccccc23)cc1 [Pravadoline] (top concentration 46.0829 µM) | 94.5% | 114% | 463 | 563 |
| CC[C@H](C)C(=O)O[C@H]1C[C@H](O)\C=C2\C=C/[C@H](C)[C@H](CC[C@@H](O)C[C@@H](O)CC(O)=O)[C@@H]12 [Pravastatin sodium] (top concentration 46.0829 µM) | 91.1% | 121% | 525 | 557 |
| O=C(C1CCCCC1)N1CC(=O)N2CCc3ccccc3C2C1 (stereo unspecified) [Praziquantel] (top concentration 46.0829 µM) | 107% | 125% | 505 | 515 |
| COc1cc2nc(N3CCN(C(=O)c4ccco4)CC3)nc(N)c2cc1OC [Prazosin hydrochloride] (top concentration 46.0829 µM) | 38.8% | 1.86% | 460 | 399 |
| CC(=O)OCC(=O)[C@@]1(O)CC[C@H]2[C@@H]3CCC/4=C/C(=O)/C=C\[C@]4(C)[C@H]3[C@@H](O)C[C@]12C [Prednisolone acetate] (top concentration 46.0829 µM) | 92.1% | 92% | 552 | 491 |
| C[C@]12C[C@H](O)[C@H]3[C@@H](CC\C4=C\C(=O)\C=C/[C@]34C)[C@@H]1CC[C@]2(O)C(=O)CO [Prednisolone] (top concentration 46.0829 µM) | 79.8% | 70.8% | 571 | 558 |
| CC(C)C[C@H](CN)CC(=O)O [Pregabalin] (top concentration 46.0829 µM) | 76.5% | 117% | 388 | 585 |
| CC(=O)[C@H]1CC[C@H]2[C@@H]3C/C=C4/C[C@@H](O)CC[C@]4(C)[C@H]3CC[C@]12C [Pregnenolone] (top concentration 46.0829 µM) | 80.8% | 82.7% | 523 | 586 |
| CCC1(c2ccccc2)C(=O)NCNC1=O [Primidone] (top concentration 46.0829 µM) | 6.59% | 3.13% | 484 | 350 |
| CC(C)(Sc1cc(C(C)(C)C)c(O)c(C(C)(C)C)c1)Sc1cc(C(C)(C)C)c(O)c(C(C)(C)C)c1 [Probucol] (top concentration 46.0829 µM) | 30.7% | 84.4% | 262 | 443 |
| CNNCc1ccc(C(=O)NC(C)C)cc1 [Procarbazine hydrochloride] (top concentration 46.0829 µM) | 61.7% | 99.5% | 515 | 517 |
| CC[C@H](NC(C)C)[C@H](O)c1ccc(O)c2[nH]c(=O)ccc12 [Procaterol hydrochloride] (top concentration 46.0829 µM) | 99.5% | 104% | 530 | 517 |
| CN1CCN(CCCN2c3ccccc3Sc3ccc(Cl)cc32)CC1.O=C(O)/C=C\C(=O)O.O=C(O)/C=C\C(=O)O [Prochlorperazine] (top concentration 46.0829 µM) | 37% | 4.18% | 496 | 438 |
| CC(=O)[C@H]1CC[C@H]2[C@@H]3CCC4=CC(=O)CC[C@]4(C)[C@H]3CC[C@]12C [Progesterone] (top concentration 46.0829 µM) | 37.5% | 42.2% | 505 | 434 |
| CCCNCC(O)COc1ccccc1C(=O)CCc1ccccc1 (stereo unspecified) [Propafenone] (top concentration 46.0829 µM) | 103% | 41.2% | 553 | 542 |
| CCCOc1ccc(C(=O)OCCN(CC)CC)cc1N [Proparacaine] (top concentration 46.0829 µM) | 102% | 103% | 533 | 580 |
| CC(C)c1cccc(C(C)C)c1O [Propofol] (top concentration 46.0829 µM) | 111% | 54.6% | 529 | 504 |
| CCC\C1=C\C(=O)NC(=S)N1 [Propylthiouracil] (top concentration 46.0829 µM) | 112% | 64.9% | 584 | 545 |
| C[C@@H]1O[C@@H](O[C@H]\2CC[C@]\3(C)[C@@H]4CC[C@]5(C)[C@@H](CC[C@@]5(O)[C@H]4CCC3=C2)C/6=C/OC(=O)/C=C6)[C@H](O)[C@H](O)[C@@H]1O [Proscillaridin] (top concentration 46.0829 µM) | 47% | 15.5% | 314 | 238 |
| CCCCC[C@H](O)/C=C/[C@H]1[C@H](O)CC(=O)[C@@H]1C/C=C\CCCC(=O)O [Prostaglandin E2] (top concentration 46.0829 µM) | 82.4% | 127% | 522 | 544 |
| CCCc1cc(C(N)=S)ccn1 [Protionamide] (top concentration 46.0829 µM) | 127% | 150% | 522 | 480 |
| COCCCN1CCC(NC(=O)c2cc(Cl)c(N)c3c2OCC3)CC1 [Prucalopride] (top concentration 46.0829 µM) | 17.8% | 29.1% | 480 | 517 |
